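Values below derive from 48-hour exposures of cells grown in 96-well plates, with endpoints linearly interpolated between the two concentrations bracketing the appropriate inhibition level. The concentration for 50% growth inhibition is given as GI50. TGI: concentration producing complete growth inhibition.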
Assays:
Test in all cases: DTP human tumour cell line panel, 48 h
M14 melanoma = test system: M14 melanoma
SN12C renal = test system: SN12C renal
SR leukemia = test system: SR leukemia
RXF 393 renal = test system: RXF 393 renal
SF-268 CNS = test system: SF-268 CNS
786-0 renal = test system: 786-0 renal
HS 578T breast = test system: HS 578T breast
SK-MEL-28 melanoma = test system: SK-MEL-28 melanoma
U251 CNS = test system: U251 CNS
CAKI-1 renal = test system: CAKI-1 renal
NCI-H23 lung = test system: NCI-H23 lung
IGROV1 ovarian = test system: IGROV1 ovarian
A498 renal = test system: A498 renal
COLO 205 colon = test system: COLO 205 colon
UO-31 renal = test system: UO-31 renal
HT29 colon = test system: HT29 colon
ACHN renal = test system: ACHN renal
DU-145 prostate = test system: DU-145 prostate
K-562 leukemia = test system: K-562 leukemia
RPMI-8226 leukemia = test system: RPMI-8226 leukemia
EKVX NSCLC = test system: EKVX NSCLC
KM12 colon = test system: KM12 colon
OVCAR-3 ovarian = test system: OVCAR-3 ovarian
HCT-116 colon = test system: HCT-116 colon
NCI/ADR-RES ovarian = test system: NCI/ADR-RES ovarian
A549 NSCLC = test system: A549 NSCLC
SF-295 CNS = test system: SF-295 CNS
T-47D breast = test system: T-47D breast

O=C1C(=O)c2ccccc2C(O)=C1CCCc1ccc(C2CCCC2)cc1
GI50 (M14 melanoma): 8.86 µM | TGI (M14 melanoma): 23.7 µM | GI50 (SN12C renal): 6.78 µM | TGI (SN12C renal): 95 µM | GI50 (SR leukemia): 3.39 µM | TGI (SR leukemia): 12.9 µM | GI50 (RXF 393 renal): 1410 nM | TGI (RXF 393 renal): 11.6 µM | GI50 (SF-268 CNS): 5.1 µM | TGI (SF-268 CNS): 51.5 µM | GI50 (786-0 renal): 4.02 µM | TGI (786-0 renal): 21.4 µM | GI50 (HS 578T breast): 20.6 µM | TGI (HS 578T breast): 85.1 µM | GI50 (SK-MEL-28 melanoma): 7.69 µM | TGI (SK-MEL-28 melanoma): 40.1 µM | GI50 (U251 CNS): 5.3 µM | TGI (U251 CNS): 33.6 µM | GI50 (CAKI-1 renal): 3.15 µM | TGI (CAKI-1 renal): 11.8 µM | GI50 (NCI-H23 lung): 5.19 µM | TGI (NCI-H23 lung): 22.6 µM | GI50 (IGROV1 ovarian): 3.72 µM | TGI (IGROV1 ovarian): 18.4 µM | GI50 (A498 renal): 7.24 µM | TGI (A498 renal): 23 µM | GI50 (COLO 205 colon): 6.82 µM | TGI (COLO 205 colon): 54.3 µM | GI50 (UO-31 renal): 3.85 µM | TGI (UO-31 renal): 15.5 µM | GI50 (HT29 colon): 5.43 µM | TGI (HT29 colon): 19.5 µM | GI50 (ACHN renal): 6.08 µM | TGI (ACHN renal): 39.6 µM | GI50 (DU-145 prostate): 6.9 µM | TGI (DU-145 prostate): 54.9 µM | GI50 (K-562 leukemia): 3.31 µM | TGI (K-562 leukemia): 10.4 µM | GI50 (RPMI-8226 leukemia): 2660 nM | TGI (RPMI-8226 leukemia): 6.94 µM | GI50 (EKVX NSCLC): 11.7 µM | TGI (EKVX NSCLC): 64.7 µM | GI50 (KM12 colon): 5.1 µM | TGI (KM12 colon): 25.1 µM | GI50 (OVCAR-3 ovarian): 4.91 µM | TGI (OVCAR-3 ovarian): 20.1 µM | GI50 (HCT-116 colon): 3.55 µM | TGI (HCT-116 colon): 13.2 µM | GI50 (NCI/ADR-RES ovarian): 5.89 µM | TGI (NCI/ADR-RES ovarian): 30.2 µM | GI50 (A549 NSCLC): 3.36 µM | TGI (A549 NSCLC): 32.9 µM | GI50 (SF-295 CNS): 3.4 µM | TGI (SF-295 CNS): 11 µM | GI50 (T-47D breast): 7.21 µM | TGI (T-47D breast): 98 µM
